For assay [1], the target named is PARG (Homo sapiens, UniProt Q86W56). The assay can be described thus: Biochemical assay (PARG, TFMU-ADPr substrate).
Assay [2] concerns HCC1806. The assay can be described thus: Cell viability assay (CellTiter-Glo). The assay is classed as cell-based, Human. Background: ATP-based viability assays read luminescence as a measure of living cells.
[3] abbreviates: Homo sapiens, HCC1806, 168 h, HCC1806, 7 days, CellTiter-Glo, read-out: IC50 (nM) in cell viability assay.
The mark [4] stands for this setting: 4 nM PARG, 66.2 uM TFMU-ADPr, 3 min at room temperature.

Read-outs that look alike come from different tables or passages of the source.

Chain of PARG (Q86W56 whole entry): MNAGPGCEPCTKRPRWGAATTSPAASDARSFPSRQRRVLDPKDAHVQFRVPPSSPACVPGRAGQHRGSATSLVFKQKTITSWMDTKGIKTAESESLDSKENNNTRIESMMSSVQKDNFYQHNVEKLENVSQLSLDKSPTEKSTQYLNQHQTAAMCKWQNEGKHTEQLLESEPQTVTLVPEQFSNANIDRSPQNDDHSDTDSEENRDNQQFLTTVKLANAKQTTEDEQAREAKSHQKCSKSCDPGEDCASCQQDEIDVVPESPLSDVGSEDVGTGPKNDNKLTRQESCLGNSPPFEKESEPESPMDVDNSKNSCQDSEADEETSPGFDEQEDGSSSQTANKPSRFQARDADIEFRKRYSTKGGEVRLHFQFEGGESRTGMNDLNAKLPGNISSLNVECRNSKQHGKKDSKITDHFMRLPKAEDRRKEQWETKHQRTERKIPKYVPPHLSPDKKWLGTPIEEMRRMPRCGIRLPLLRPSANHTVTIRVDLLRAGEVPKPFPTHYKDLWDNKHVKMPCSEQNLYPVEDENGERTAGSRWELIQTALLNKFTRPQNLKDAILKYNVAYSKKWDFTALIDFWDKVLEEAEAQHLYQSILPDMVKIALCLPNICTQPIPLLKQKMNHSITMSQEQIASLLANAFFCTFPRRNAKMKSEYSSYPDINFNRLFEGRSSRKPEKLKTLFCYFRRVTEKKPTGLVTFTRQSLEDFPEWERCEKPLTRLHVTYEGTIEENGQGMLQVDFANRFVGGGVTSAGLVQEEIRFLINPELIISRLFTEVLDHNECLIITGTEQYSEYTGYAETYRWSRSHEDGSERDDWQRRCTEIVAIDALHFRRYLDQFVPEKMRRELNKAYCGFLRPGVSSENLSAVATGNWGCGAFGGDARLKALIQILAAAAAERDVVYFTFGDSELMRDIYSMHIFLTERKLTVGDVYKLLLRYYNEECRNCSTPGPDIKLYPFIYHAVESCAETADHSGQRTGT

By IC50 is commonly meant the concentration at which inhibition is half-maximal. For `C[C@@H]1CN(c2cc(S(=O)(=O)NC3(C#N)CC3)cn3c(-c4nnc(C(F)F)s4)cnc23)CCN1C(=O)C1(C)CC1` [Example 204, (R)-N-(1-cyanocyclopropyl)-3-(5-(difluoromethyl)-1,3,4-thiadiazol-2-yl)-8-(3-methyl-4-(1-methylcyclopropane-1-carbonyl)piperazin-1-yl)imidazo[1,2-a]pyridine-6-sulfonamide], the IC50 in assay [1] (PARG, TFMU-ADPr substrate) was found to be 36.3 nM; in assay [2] (setting [3]), 360 nM.

`CC1(NS(=O)(=O)c2cc(N3CCN(C(=O)[C@@H]4CCCN4)CC3)c3cnc(-c4nnc(C(F)(F)F)s4)n3c2)CC1` [Example 316, (S)-N-(1-methylcyclopropyl)-8-(4-prolylpiperazin-1-yl)-3-(5-(trifluoromethyl)-1,3,4-thiadiazol-2-yl)imidazo[1,5-a]pyridine-6-sulfonamide]: the IC50 in assay [1] (PARG, TFMU-ADPr substrate) amounted to 4.46 nM; in assay [2] (setting [3]), 918 nM.

Take `N#CC1(NS(=O)(=O)c2cc(N3CCN(C(=O)[C@H]4CCCN4)CC3)c3cnc(-c4nnc(C(F)(F)F)s4)n3c2)CC1` [Example 265, (R)-N-(1-cyanocyclopropyl)-8-(4-prolylpiperazin-1-yl)-3-(5-(trifluoromethyl)-1,3,4-thiadiazol-2-yl)imidazo[1,5-a]pyridine-6-sulfonamide]: the IC50 in assay [1] (PARG, TFMU-ADPr substrate) is 158 nM; in assay [2] (setting [3]) it was 8000 nM.

For the molecule `CC1(C(=O)N2CCN(c3cc(S(=O)(=O)NC4(C#N)CC4)cn4c(-c5nnc(C(F)F)s5)ncc34)CC23CC3)CC1` [Example 91, N-(1-cyanocyclopropyl)-3-(5-(difluoromethyl)-1,3,4-thiadiazol-2-yl)-8-(4-(1-methylcyclopropane-1-carbonyl)-4,7-diazaspiro[2.5]octan-7-yl)imidazo[1,5-a]pyridine-6-sulfonamide], the IC50 in assay [1] (setting [4]) is under 100 nM; in assay [1] (PARG, TFMU-ADPr substrate), 31.6 nM; in assay [2] (HCC1806, 7 days, CellTiter-Glo, read-out: IC50 (nM) in cell viability assay) it was 264 nM; in assay [2] (setting [3]), under 500 nM.

`CN1CC(F)(C(=O)N2CCN(c3cc(S(=O)(=O)NC4(C)CC4)cn4c(-c5nnc(C(F)(F)F)s5)ncc34)CC2)C1` [Example 322, 8-(4-(3-fluoro-1-methylazetidine-3-carbonyl)piperazin-1-yl)-N-(1-methylcyclopropyl)-3-(5-(trifluoromethyl)-1,3,4-thiadiazol-2-yl)imidazo[1,5-a]pyridine-6-sulfonamide]: the IC50 in assay [1] (PARG, TFMU-ADPr substrate) worked out at 16.5 nM; in assay [2] (setting [3]), 334 nM.

On to `Cn1ccnc1N1CCN(c2cc(S(=O)(=O)NC3(C#N)CC3)cn3c(-c4nnc(C(F)(F)F)s4)ncc23)CC1` [Example 238, N-(1-cyanocyclopropyl)-8-(4-(1-methyl-1H-imidazol-2-yl)piperazin-1-yl)-3-(5-(trifluoromethyl)-1,3,4-thiadiazol-2-yl)imidazo[1,5-a]pyridine-6-sulfonamide], for which the IC50 was 38 nM in assay [1] (PARG, TFMU-ADPr substrate) and 15000 nM in assay [2] (setting [3]).

As to `COC1(C(=O)N2CCN(c3cc(S(=O)(=O)NC4(C)CC4)cn4c(-c5nnc(C(F)F)s5)ncc34)CC2)CN(CCF)C1` [Example 312, 3-(5-(difluoromethyl)-1,3,4-thiadiazol-2-yl)-8-(4-(1-(2-fluoroethyl)-3-methoxyazetidine-3-carbonyl)piperazin-1-yl)-N-(1-methylcyclopropyl)imidazo[1,5-a]pyridine-6-sulfonamide], the half-inhibitory concentration (IC50) in assay [1] (PARG, TFMU-ADPr substrate) is under 0.1 nM; in assay [2] (setting [3]) it was 6.02 nM.

For `COC1(C(=O)N2CC=C(c3cc(S(=O)(=O)NC4(C#N)CC4)cn4c(-c5nnc(C(F)(F)F)s5)ncc34)CC2)CC1` [Example 379, N-(1-cyanocyclopropyl)-8-(1-(1-methoxycyclopropane-1-carbonyl)-1,2,3,6-tetrahydropyridin-4-yl)-3-(5-(trifluoromethyl)-1,3,4-thiadiazol-2-yl)imidazo[1,5-a]pyridine-6-sulfonamide], the IC50 worked out at 2.09 nM in assay [1] (PARG, TFMU-ADPr substrate) and 20 nM in assay [2] (setting [3]).

For the molecule `N#CC1(NS(=O)(=O)c2cc(C3=CCN(C(=O)C4(O)CC4)CC3)c3cnc(-c4nnc(C(F)(F)F)s4)n3c2)CC1` [Example 371, N-(1-cyanocyclopropyl)-8-(1-(1-hydroxycyclopropane-1-carbonyl)-1,2,3,6-tetrahydropyridin-4-yl)-3-(5-(trifluoromethyl)-1,3,4-thiadiazol-2-yl)imidazo[1,5-a]pyridine-6-sulfonamide], the IC50 came out at 4.57 nM in assay [1] (PARG, TFMU-ADPr substrate) and 360 nM in assay [2] (setting [3]).

In the case of `COC1(CN2CCN(c3cc(S(=O)(=O)NC4(C)CC4)cn4c(-c5nnc(C(F)F)s5)ncc34)CC2)CC1` [Example 350, 3-(5-(difluoromethyl)-1,3,4-thiadiazol-2-yl)-8-(4-((1-methoxycyclopropyl)methyl)piperazin-1-yl)-N-(1-methylcyclopropyl)imidazo[1,5-a]pyridine-6-sulfonamide], the IC50 in assay [1] (PARG, TFMU-ADPr substrate) was 20 nM; in assay [2] (setting [3]), 713 nM.

As to `CC(C)C(=O)N1CCN(c2c(F)c(S(=O)(=O)NC3(C#N)CC3)cn3c(-c4nnc(C(F)(F)F)s4)ncc23)CC1` [Example 390, N-(1-cyanocyclopropyl)-7-fluoro-8-(4-isobutyrylpiperazin-1-yl)-3-(5-(trifluoromethyl)-1,3,4-thiadiazol-2-yl)imidazo[1,5-a]pyridine-6-sulfonamide], the IC50 amounted to 28.2 nM in assay [1] (PARG, TFMU-ADPr substrate) and 793 nM in assay [2] (setting [3]).

Take `Cc1nnc(-c2cnn3c(N4CCN(C(=O)C(C)C)CC4)cc(S(=O)(=O)NC4(C#N)CC4)cc23)s1` [Example 30, N-(1-cyanocyclopropyl)-7-(4-isobutyrylpiperazin-1-yl)-3-(5-methyl-1,3,4-thiadiazol-2-yl)pyrazolo[1,5-a]pyridine-5-sulfonamide]: the IC50 in assay [1] (setting [4]) was under 100 nM; in assay [1] (PARG, TFMU-ADPr substrate), 88.9 nM; in assay [2] (setting [3]) it was over 30000 nM.

With `CN(C)C(=O)N1CCN(c2cc(S(=O)(=O)NC3(C)CC3)cn3c(-c4nnc(C(F)F)s4)ncc23)CC1` [Example 308, 4-(3-(5-(difluoromethyl)-1,3,4-thiadiazol-2-yl)-6-(N-(1-methylcyclopropyl)sulfamoyl)imidazo[1,5-a]pyridin-8-yl)-N,N-dimethylpiperazine-1-carboxamide], the IC50 in assay [1] (PARG, TFMU-ADPr substrate) was found to be 0.73 nM; in assay [2] (setting [3]) it was 104 nM.

With `CC(C)OC(=O)N1CCN(c2cc(S(=O)(=O)NC3(C#N)CC3)cn3c(-c4nnc(C(F)(F)F)s4)ncc23)CC1` [Example 234, isopropyl 4-(6-(N-(1-cyanocyclopropyl)sulfamoyl)-3-(5-(trifluoromethyl)-1,3,4-thiadiazol-2-yl)imidazo[1,5-a]pyridin-8-yl)piperazine-1-carboxylate], the IC50 in assay [1] (PARG, TFMU-ADPr substrate) is 13.2 nM; in assay [2] (setting [3]) it was 4000 nM.

Consider `N#CC1(NS(=O)(=O)c2cc(N3CCN(C(=O)C4CC(O)C4)CC3)c3cnc(-c4nnc(C(F)(F)F)s4)n3c2)CC1` (centres unmarked) [Example 283, N-(1-cyanocyclopropyl)-8-(4-(3-hydroxycyclobutane-1-carbonyl)piperazin-1-yl)-3-(5-(trifluoromethyl)-1,3,4-thiadiazol-2-yl)imidazo[1,5-a]pyridine-6-sulfonamide], for which the IC50 in assay [1] (PARG, TFMU-ADPr substrate) worked out at 3.8 nM; in assay [2] (setting [3]) it was 539 nM.

For `COC1CN(c2cc(S(=O)(=O)NC3(C)CC3)cn3c(-c4nnc(C(F)F)s4)ncc23)CCC1O` (centres unmarked) [Example 348, 3-(5-(difluoromethyl)-1,3,4-thiadiazol-2-yl)-8-(4-hydroxy-3-methoxypiperidin-1-yl)-N-(1-methylcyclopropyl)imidazo[1,5-a]pyridine-6-sulfonamide], the IC50 came to 1.99 nM in assay [1] (PARG, TFMU-ADPr substrate) and 257 nM in assay [2] (setting [3]).

As for `N#CC1(NS(=O)(=O)c2cc(N3CCC(n4cncn4)CC3)c3cnc(-c4nnc(C(F)(F)F)s4)n3c2)CC1` [Example 213, 8-(4-(1H-1,2,4-triazol-1-yl)piperidin-1-yl)-N-(1-cyanocyclopropyl)-3-(5-(trifluoromethyl)-1,3,4-thiadiazol-2-yl)imidazo[1,5-a]pyridine-6-sulfonamide], the IC50 turned out to be 31.6 nM in assay [1] (PARG, TFMU-ADPr substrate) and 1200 nM in assay [2] (setting [3]).

On to `N#CC1(NS(=O)(=O)c2ccc3c(C4=CCC5(CNC5)C4)nc(-c4nnc(C(F)F)s4)n3c2)CC1` [Example 22, N-(1-cyanocyclopropyl)-3-(5-(difluoromethyl)-1,3,4-thiadiazol-2-yl)-1-(2-azaspiro[3.4]oct-6-en-6-yl)imidazo[1,5-a]pyridine-6-sulfonamide], for which the IC50 was under 100 nM in assay [1] (setting [4]); 5.17 nM in assay [1] (PARG, TFMU-ADPr substrate); over 30000 nM in assay [2] (Homo sapiens, HCC1806, 168 h, read-out: IC50 (nM) in cell viability assay, HCC1806, 7 days, CellTiter-Glo); 30000 nM in assay [2] (read-out: IC50 (nM) in cell viability assay, HCC1806, 7 days, CellTiter-Glo).

Regarding `CC1(C(=O)N2CCN(c3cc(S(=O)(=O)NC4(C#N)CC4)cn4c(-c5nnc(C(F)(F)F)s5)ncc34)CC2)CC1` [Example 225, N-(1-cyanocyclopropyl)-8-(4-(1-methylcyclopropane-1-carbonyl)piperazin-1-yl)-3-(5-(trifluoromethyl)-1,3,4-thiadiazol-2-yl)imidazo[1,5-a]pyridine-6-sulfonamide], the IC50 in assay [1] (PARG, TFMU-ADPr substrate) came out at 7.94 nM; in assay [2] (setting [3]) it was 600 nM.

Regarding `COCC1(O)CCN(c2cc(S(=O)(=O)NC3(C)CC3)cn3c(-c4nnc(C(F)F)s4)ncc23)CC1` [Example 346, 3-(5-(difluoromethyl)-1,3,4-thiadiazol-2-yl)-8-(4-hydroxy-4-(methoxymethyl)piperidin-1-yl)-N-(1-methylcyclopropyl)imidazo[1,5-a]pyridine-6-sulfonamide], the half-inhibitory concentration (IC50) in assay [1] (PARG, TFMU-ADPr substrate) was 1.53 nM; in assay [2] (setting [3]), 109 nM.

On to `CC1(NS(=O)(=O)c2cc(N3CCN[C@H](CF)C3)c3cnc(-c4nnc(C(F)F)s4)n3c2)COC1` [Example 191, (S)-3-(5-(difluoromethyl)-1,3,4-thiadiazol-2-yl)-8-(3-(fluoromethyl)piperazin-1-yl)-N-(3-methyloxetan-3-yl)imidazo[1,5-a]pyridine-6-sulfonamide], for which the concentration for half-maximal inhibition (IC50) in assay [1] (PARG, TFMU-ADPr substrate) came to 32 nM; in assay [2] (setting [3]), 723 nM.

The values are drawn from US20260258035A1, “FIVE-MEMBERED AND SIX-MEMBERED NITROGEN-CONTAINING COMPOUND, AND INTERMEDIATE, PREPARATION METHOD AND USE THEREOF” (HANGZHOU SYNRX THERAPEUTICS BIOMEDICAL TECHNOLOGY CO., LTD., priority 2022, published 2026).
